SMILES strings stand for the structures.

In one assay the target is T1, Beta-glucuronidase (Bos taurus, UniProt A3KMY8).
T1 sequence (A3KMY8 whole entry): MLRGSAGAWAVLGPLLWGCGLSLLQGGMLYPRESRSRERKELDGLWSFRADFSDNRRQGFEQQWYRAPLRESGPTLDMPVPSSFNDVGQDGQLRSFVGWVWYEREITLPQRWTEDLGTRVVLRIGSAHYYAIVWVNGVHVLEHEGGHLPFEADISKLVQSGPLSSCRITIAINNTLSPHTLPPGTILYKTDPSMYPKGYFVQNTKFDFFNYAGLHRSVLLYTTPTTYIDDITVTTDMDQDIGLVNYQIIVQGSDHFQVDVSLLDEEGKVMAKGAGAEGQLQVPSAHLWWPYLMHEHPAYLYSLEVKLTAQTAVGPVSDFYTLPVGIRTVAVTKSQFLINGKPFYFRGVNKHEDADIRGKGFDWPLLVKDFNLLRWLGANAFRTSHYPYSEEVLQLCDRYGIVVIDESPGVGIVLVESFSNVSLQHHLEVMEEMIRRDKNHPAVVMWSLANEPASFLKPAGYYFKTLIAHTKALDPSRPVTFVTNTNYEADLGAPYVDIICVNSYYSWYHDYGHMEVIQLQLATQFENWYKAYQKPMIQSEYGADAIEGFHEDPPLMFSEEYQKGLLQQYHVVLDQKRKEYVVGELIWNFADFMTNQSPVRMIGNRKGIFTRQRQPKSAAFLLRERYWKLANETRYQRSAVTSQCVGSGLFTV
In words: Inhibition of bovine liver beta-glucuronidase using p-nitrophenyl-beta-D-glucuronide as substrate assessed as p-nitrophenol formation after 30 mins by multiplate reader analysis.
Conditions: not given; call rule not given here
Take `Cc1ccccc1/C=N/NC(=O)c1ccc(-c2nnc(-c3ccccc3O)o2)cc1`: the half-inhibitory concentration (IC50) result was “Not Active”. As for `Cc1cccc(/C=N/NC(=O)c2ccc(-c3nnc(-c4ccccc4O)o3)cc2)c1`, the IC50 result was “Not Active”. The same measure, in the same setting: under `O=C(N/N=C/c1ccccc1Cl)c1ccc(-c2nnc(-c3ccccc3O)o2)cc1` stands “Not Active”; under `Cc1ccc(/C=N/NC(=O)c2ccc(-c3nnc(-c4ccccc4O)o3)cc2)cc1`, “Not Active”. The same measure, in the same setting: under `O=C(N/N=C/c1ccccc1[N+](=O)[O-])c1ccc(-c2nnc(-c3ccccc3O)o2)cc1` stands “Not Active”; under `O=C(N/N=C/c1cccnc1)c1ccc(-c2nnc(-c3ccccc3O)o2)cc1`, “Not Active”. Same read-out and setting: the entry for `O=C(N/N=C/c1ccncc1)c1ccc(-c2nnc(-c3ccccc3O)o2)cc1` is “Not Active”; for `COc1ccccc1/C=N/NC(=O)c1ccc(-c2nnc(-c3ccccc3O)o2)cc1` it is “Not Active”. Take `O=C(N/N=C/c1ccc(F)cc1)c1ccc(-c2nnc(-c3ccccc3O)o2)cc1`: the IC50 entry is recorded as “Not Active”.

`O=C(N/N=C/c1cccc(F)c1)c1ccc(-c2nnc(-c3ccccc3O)o2)cc1`: the half-inhibitory concentration (IC50) result is on record as “Not Active”. With `O=C(N/N=C/c1cccc(Cl)c1)c1ccc(-c2nnc(-c3ccccc3O)o2)cc1`, the concentration for half-maximal inhibition (IC50) result is reported as “Not Active”.

Staying with this assay, now noted: read-out: IC50.
`O=C(N/N=C/c1ccc(O)cc1)c1ccc(-c2nnc(-c3ccccc3O)o2)cc1`: the IC50 is 18.5 µM. As for `O=C(N/N=C/c1cccc(O)c1)c1ccc(-c2nnc(-c3ccccc3O)o2)cc1`, the IC50 is 34.5 µM.

`O=C(N/N=C/c1ccc(O)c(O)c1)c1ccc(-c2nnc(-c3ccccc3O)o2)cc1`: the 50% inhibitory concentration (IC50) turned out to be 29.2 µM. Same read-out and setting: the figure for `O=C(N/N=C/c1cc(O)ccc1O)c1ccc(-c2nnc(-c3ccccc3O)o2)cc1` is 15.1 µM; for `O=C(N/N=C/c1cccc([N+](=O)[O-])c1)c1ccc(-c2nnc(-c3ccccc3O)o2)cc1` it is 64.1 µM; for `O=C(N/N=C/c1ccc([N+](=O)[O-])cc1)c1ccc(-c2nnc(-c3ccccc3O)o2)cc1` it is 44.2 µM. As to `O=C(N/N=C/c1c(O)cc(O)cc1O)c1ccc(-c2nnc(-c3ccccc3O)o2)cc1`, the IC50 was 82.2 µM. The same measure, in the same setting: under `COc1ccc(/C=N/NC(=O)c2ccc(-c3nnc(-c4ccccc4O)o3)cc2)cc1O` stands 7.14 µM; under `O=C(N/N=C/c1cc(O)c(O)cc1O)c1ccc(-c2nnc(-c3ccccc3O)o2)cc1`, 21.1 µM.

As for `O=C(N/N=C/c1ccc(Cl)cc1)c1ccc(-c2nnc(-c3ccccc3O)o2)cc1`, the IC50 worked out at 86.1 µM. For `COc1ccc(O)c(/C=N/NC(=O)c2ccc(-c3nnc(-c4ccccc4O)o3)cc2)c1`, the IC50 is 88.1 µM. On the same count and under the same terms, the figure for `O=C(N/N=C/c1ccccc1O)c1ccc(-c2nnc(-c3ccccc3O)o2)cc1` is 91.4 µM; for `O=C(N/N=C/c1ccccn1)c1ccc(-c2nnc(-c3ccccc3O)o2)cc1` it is 42.3 µM. The same measure, in the same setting: under `O=C(N/N=C/c1ccccc1F)c1ccc(-c2nnc(-c3ccccc3O)o2)cc1` stands 108 µM.

The IC50 is the concentration that inhibits the measured activity by half.

The record behind these values is ChEMBL document CHEMBL3627634, “Synthesis of novel benzohydrazone-oxadiazole hybrids as β-glucuronidase inhibitors and molecular modeling studies” (Bioorg Med Chem, 2015).
